Results published in BindingDB's records for doi:10.1016/j.bmcl.2004.12.068 (Pharmacor, 2005).
pKi: −log10 of the molar value. Where a name gives a salt, the structure may show the parent alone.

What follows are molecules tested against T1, Dimer of Gag-Pol polyprotein [501-599] (Human immunodeficiency virus 1, UniProt P03367) (assay: Protease Inhibition Assay). Settings: not given.
T1 construct: 501-599
Procedure: HIV-1 protease activity was measured by a continuous fluorometric assay using the internally quenched fluorogenic substrate DABCYL-Ser-Gln-Asn-Tyr-Pro-Ile-Val-Gln-EDANS. The proteolytic activity can be monitored by the increase in fluorescence intensity, and the protease products were analyzed by HPLC.
Cc1ccc(S(=O)(=O)N(CC(C)C)[C@@H](CCCCNC(=O)OCC2c3ccccc3-c3ccccc32)C(=O)NN)cc1 [9H-fluoren-9-ylmethyl N-[(5S)-5-(hydrazinecarbonyl)-5-[(4-methylbenzene)(2-methylpropyl)sulfonamido]pentyl]carbamate] was tested, and the pKi was 6.60. Cc1ccc(S(=O)(=O)N(CC(C)C)[C@@H](CCCCNC(=O)OCC2c3ccccc3-c3ccccc32)C(=O)NO)cc1 [9H-fluoren-9-ylmethyl N-[(5S)-5-(hydroxycarbamoyl)-5-[(4-methylbenzene)(2-methylpropyl)sulfonamido]pentyl]carbamate] showed a pKi of 6.61. With Cc1ccc(S(=O)(=O)N(CC(C)C)[C@@H](CCCCNC(=O)OCC2c3ccccc3-c3ccccc32)c2nnn[nH]2)cc1 [9H-fluoren-9-ylmethyl N-[(5S)-5-[(4-methylbenzene)(2-methylpropyl)sulfonamido]-5-(1H-1,2,3,4-tetrazol-5-yl)pentyl]carbamate] the pKi was less than 6.52. Cc1ccc(S(=O)(=O)N(CC(C)C)[C@H](C=O)CCCCNC(=O)OCC2c3ccccc3-c3ccccc32)cc1 [9H-fluoren-9-ylmethyl N-[(5S)-5-[(4-methylbenzene)(2-methylpropyl)sulfonamido]-6-oxohexyl]carbamate] was tested, and the pKi was less than 6.52. In the case of Cc1ccc(S(=O)(=O)N(CC(C)C)[C@@H](CCCCNC(=O)OCC2c3ccccc3-c3ccccc32)C(=N)N)cc1 [9H-fluoren-9-ylmethyl N-[(5S)-5-carbamimidoyl-5-[(4-methylbenzene)(2-methylpropyl)sulfonamido]pentyl]carbamate], the pKi was 6.55. Molecule Cc1ccc(S(=O)(=O)N(CC(C)C)[C@@H](CCCCNC(=O)OCC2c3ccccc3-c3ccccc32)C(N)=S)cc1 [9H-fluoren-9-ylmethyl N-[(5S)-5-carbamothioyl-5-[(4-methylbenzene)(2-methylpropyl)sulfonamido]pentyl]carbamate] has a pKi of 6.90. Cc1ccc(S(=O)(=O)N(CC(C)C)[C@@H](CCCCNC(=O)OCC2c3ccccc3-c3ccccc32)C(N)=O)cc1 [9H-fluoren-9-ylmethyl N-[(5S)-5-carbamoyl-5-[(4-methylbenzene)(2-methylpropyl)sulfonamido]pentyl]carbamate] showed a pKi of 6.97. Cc1ccc(S(=O)(=O)N(CC(C)C)[C@H](CN)CCCCNC(=O)OCC2c3ccccc3-c3ccccc32)cc1 [9H-fluoren-9-ylmethyl N-[(5S)-6-amino-5-[(4-methylbenzene)(2-methylpropyl)sulfonamido]hexyl]carbamate hydrochloride] gave a pKi of less than 6.52. With Cc1ccc(S(=O)(=O)N(CC(C)C)[C@H](CO)CCCCNC(=O)OCC2c3ccccc3-c3ccccc32)cc1 [9H-fluoren-9-ylmethyl N-[(5S)-6-hydroxy-5-[(4-methylbenzene)(2-methylpropyl)sulfonamido]hexyl]carbamate] the pKi was 6.98. Work on Cc1ccc(S(=O)(=O)N(CC(C)C)[C@@H](CNC(=O)OCC2c3ccccc3-c3ccccc32)C(=O)O)cc1 [(2S)-3-{[(9H-fluoren-9-ylmethoxy)carbonyl]amino}-2-[(4-methylbenzene)(2-methylpropyl)sulfonamido]propanoic acid] yielded a pKi of less than 6.60. With Cc1ccc(S(=O)(=O)N(CC(C)C)[C@@H](CCNC(=O)OCC2c3ccccc3-c3ccccc32)C(=O)O)cc1 [(2S)-4-{[(9H-fluoren-9-ylmethoxy)carbonyl]amino}-2-[(4-methylbenzene)(2-methylpropyl)sulfonamido]butanoic acid] the pKi was less than 6.60. Cc1ccc(S(=O)(=O)N(CC(C)C)[C@@H](CCCCNC(=O)C2c3ccccc3-c3ccccc32)C(=O)O)cc1 [(2S)-6-(9H-fluoren-9-ylformamido)-2-[(4-methylbenzene)(2-methylpropyl)sulfonamido]hexanoic acid] gave a pKi of 6.98. With CC(C)CN(C(=O)c1ccccc1)[C@@H](CCCCNC(=O)OCC1c2ccccc2-c2ccccc21)C(=O)O [(2S)-6-{[(9H-fluoren-9-ylmethoxy)carbonyl]amino}-2-[N-(2-methylpropyl)phenylformamido]hexanoic acid] the pKi was less than 6.52. Cc1ccc(S(=O)(=O)N(CC(C)C)[C@@H](CCCCNC(=O)OC(C)(C)C)C(=O)O)cc1 [(2S)-6-{[(tert-butoxy)carbonyl]amino}-2-[(4-methylbenzene)(2-methylpropyl)sulfonamido]hexanoic acid] showed a pKi of less than 6.60. Cc1ccc(S(=O)(=O)N(CC(C)C)[C@@H](CCCCCNC(=O)OCC2c3ccccc3-c3ccccc32)C(=O)O)cc1 [(2S)-7-{[(9H-fluoren-9-ylmethoxy)carbonyl]amino}-2-[(4-methylbenzene)(2-methylpropyl)sulfonamido]heptanoic acid] was tested, and the pKi was less than 6.60. COC(=O)[C@H](CCCCNC(=O)OCC1c2ccccc2-c2ccccc21)N(CC(C)C)S(=O)(=O)c1ccc(C)cc1 [methyl (2S)-6-{[(9H-fluoren-9-ylmethoxy)carbonyl]amino}-2-[(4-methylbenzene)(2-methylpropyl)sulfonamido]hexanoate] gave a pKi of less than 6.52.

Same assay, conditions: pH 4.7; 30 °C
With Cc1ccc(S(=O)(=O)NCCC[C@H](NC(=O)OCC2c3ccccc3-c3ccccc32)C(=O)O)cc1 [(2S)-2-{[(9H-fluoren-9-ylmethoxy)carbonyl]amino}-5-[(4-methylbenzene)sulfonamido]pentanoic acid] the pKi was 4.58. Cc1ccc(S(=O)(=O)N(CCCC[C@H](NC(=O)OCC2c3ccccc3-c3ccccc32)C(=O)O)CC(C)C)cc1 [(2S)-2-{[(9H-fluoren-9-ylmethoxy)carbonyl]amino}-6-[(4-methylbenzene)(2-methylpropyl)sulfonamido]hexanoic acid] gave a pKi of 5.70. Work on CC(C)(C)OC(=O)NCCCC[C@H](NC(=O)OCc1ccccc1)C(=O)O [(2S)-2-{[(benzyloxy)carbonyl]amino}-6-{[(tert-butoxy)carbonyl]amino}hexanoic acid] yielded a pKi of less than 4.00. Molecule Cc1ccc(S(=O)(=O)N(CC(C)C)[C@@H](CCCCNC(=O)OCC2c3ccccc3-c3ccccc32)C(=O)O)cc1 [(2S)-6-{[(9H-fluoren-9-ylmethoxy)carbonyl]amino}-2-[(4-methylbenzene)(2-methylpropyl)sulfonamido]hexanoic acid] has a pKi of 8.30. For Cc1ccc(S(=O)(=O)N[C@@H](CCCCNC(=O)OC(C)(C)C)C(=O)O)cc1 [(2S)-6-{[(tert-butoxy)carbonyl]amino}-2-[(4-methylbenzene)sulfonamido]hexanoic acid], the pKi was less than 4.00.
